Five compounds from patent US8618163B2, “Derivatives of cycloalkyl- and cycloalkenyl-1,2-dicarboxylic acid compounds having formyl peptide receptor like-1 (FPRL-1) agonist or antagonist activity” (Allergan, Inc., priority 2010, dated 2013) can be followed below.

Where two headings read alike, the source gives them in different places.

Assay [1] deals with T1, FPR1 (Homo sapiens, UniProt P21462).
T1 construct: expressed in transfected cells; host or cells: HEK-Gqi5 (HEK cells with chimeric G protein Gqi5)
T1 sequence (P21462 1-350): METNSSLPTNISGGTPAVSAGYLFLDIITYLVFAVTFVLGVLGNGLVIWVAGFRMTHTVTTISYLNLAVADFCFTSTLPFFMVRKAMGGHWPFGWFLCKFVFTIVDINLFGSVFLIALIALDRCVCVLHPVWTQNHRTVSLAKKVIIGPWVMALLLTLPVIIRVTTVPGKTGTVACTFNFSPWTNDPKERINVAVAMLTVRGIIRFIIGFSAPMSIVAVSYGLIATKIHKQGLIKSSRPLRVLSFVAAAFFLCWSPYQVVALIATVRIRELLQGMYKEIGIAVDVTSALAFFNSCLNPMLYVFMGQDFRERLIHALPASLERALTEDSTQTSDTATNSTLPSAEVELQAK
In words: compound-induced calcium activity on FLIPR Tetra in HEK-Gqi5 cells stable expressing FPR1. It counts as cell-based. Also noted: FPR1 (rel. eff.): scale not given here. The method, boiled down:
(§1)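 FPRL1 tested in CHO-Gal6 cells and FPR1 in HEK-Gqi5 cells, both stably expressing receptor and plated the day before. Compound-induced calcium response measured on FLIPR Tetra at 0.61 to 10,000 nM. EC50 (nM) and efficacy reported.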

The target of assay [2] is T2, FPRL1 (Homo sapiens, UniProt P25090).
T2 construct: expressed in transfected cells; host or cells: CHO-Gal6 (CHO cells with G alpha 16)
T2 sequence (P25090 1-351): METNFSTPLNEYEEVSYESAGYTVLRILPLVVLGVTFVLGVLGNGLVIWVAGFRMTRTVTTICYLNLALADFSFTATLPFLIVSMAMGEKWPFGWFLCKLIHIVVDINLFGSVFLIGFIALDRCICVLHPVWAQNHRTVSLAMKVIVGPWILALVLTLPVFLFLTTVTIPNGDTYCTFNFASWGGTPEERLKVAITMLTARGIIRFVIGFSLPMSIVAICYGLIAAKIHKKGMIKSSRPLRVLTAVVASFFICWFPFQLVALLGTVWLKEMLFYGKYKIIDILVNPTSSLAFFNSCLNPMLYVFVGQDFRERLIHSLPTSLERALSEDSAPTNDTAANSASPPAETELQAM
In words: compound-induced calcium activity on FLIPR Tetra in CHO-Gal6 cells stably expressing FPRL1. The format is cell-based. Particulars: for FPRL1 (rel. eff.): relative efficacy. The method, boiled down: as §1

The mark [3] stands for this setting: class symbol NA, read-out: FPR1 EC50 (NA = Not Active).
Setting [4] is: calcium, FLIPR Tetra, tested 0.61 to 10,000 nM, read-out: FPRL1 EC50.

Regarding `O=C(Nc1ccc(Br)cc1)[C@H]1[C@@H](C=NO)[C@H]2CC[C@@H]1C21CC1` (racemic) [Compound 92, (+/−)-(1S,2R,3S,4R)—N-(4-Bromophenyl)-3-((hydroxyimino)methyl)spiro[bicyclo[2.2.1]heptane-7,1′-cyclopropane]-2-carboxamide], the figures for the EC50 in assay [1] (setting [3]) and in assay [2] (setting [4]) were greater than 10 µM and 4380 nM, respectively. The “FPRL1 (rel. eff.)” value in assay [2] (calcium, FLIPR Tetra) is listed as 0.5.

Turning to `CC1(C)[C@@H]2CC[C@H]1[C@@H](C(=O)Nc1ccc(I)cc1)[C@H]2C(N)=O` (racemic) [Compound 55, (+/−)-(1S,2R,3S,4R)—N2-(4-Iodophenyl)-7,7-dimethylbicyclo[2.2.1]heptane-2,3-dicarboxamide], the EC50 (usually the concentration at which the effect is half-maximal) in assay [1] (setting [3]) is greater than 10 µM. The “FPRL1 (rel. eff.)” value in assay [2] (calcium, FLIPR Tetra) turned out to be 0.81.

As for `NC(=O)C1C(C(=O)Nc2ccc(Br)cc2)C2CCC1C21CC1` (racemic) [Compound 46B], the EC50 in assay [1] (cells printed in μM, read-out: FPR1 EC50) was greater than 40 µM; in assay [2] (setting [4]), less than 1 nM. For the same compound, the “FPR1 (rel. eff.)” value in assay [1] (relative efficacy, calcium, FLIPR Tetra) is given as 0.30. The “FPRL1 (rel. eff.)” value in assay [2] (calcium, FLIPR Tetra) was determined as 0.91.

In the case of `O=C1C2C(C(O)N1c1ccc(Br)cc1)C1CCC2C12CC2` (racemic) [Compound 91, (+/−)-(3aR,4S,7R,7aS)-2-(4-Bromophenyl)-1-hydroxyhexahydro-1H-spiro[4,7-methanoisoindole-8,1′-cyclopropane]-3(2H)-one], the EC50 in assay [1] (setting [3]) was greater than 10 µM; in assay [2] (class symbol NA, read-out: FPRL1 EC50 (NA = Not Active)), greater than 10000 nM.

Take `O=C(O)C1=C(C(=O)Nc2ccc(Br)cc2)C2C=CC1C21CC1` (racemic) [Compound 72, (+/−)-(1R,4S)-2-((4-Bromophenyl)carbamoyl)spiro[bicyclo[2.2.1]-hepta[2,5]diene-7,1′-cyclopropane]-3-carboxylic Acid]: the concentration for a half-maximal effect (EC50) in assay [1] (setting [3]) was greater than 10 µM; in assay [2] (setting [4]), 617 nM. Further, the “FPRL1 (rel. eff.)” value in assay [2] (calcium, FLIPR Tetra) was 0.92.
